Literature values as cited in patent publication US8716182B2, “Liquid aqueous crop protection formulations” (BASF SE, priority 2008, dated 2014).

Details: miscible means fully miscible with water

For `OCCOc1ccccc1` [Agrisol PX401, 2-phenoxyethanol], which “solubility in water at 20° C.” value is on record?
The value was “(24 g/l)”.

With `COCC(C)OC(C)=O` (stereo not shown) [Arcosolv ® PMA, 1-methoxy-2-propanol acetate] as the molecule, how does the “solubility in water at 20° C.” value read?
Its value is “acetate)(400 g/l)”.

For `C[S+](C)[O-]` [DMSO, dimethyl sulfoxide], which “solubility in water at 20° C.” value is on record?
The value was “(miscible)”.

Which “solubility in water at 20° C.” value does the source give for `CCCOC(=O)C(C)O` (stereo not shown) [Purasolv ® NPL, n-propyl lactate] here?
The value was “(miscible)”.

Which “solubility in water at 20° C.” value does the source give for `OCC1CCCO1` (stereo not shown) [tetrahydrofurfuryl alcohol] here?
Its value is “(miscible)”.

For `CC(=O)OCC(COC(C)=O)OC(C)=O` [triacetin], which “solubility in water at 20° C.” value is on record?
The value was “(64 g/l)”.

Which “solubility in water at 20° C.” value does the source give for `O=C1CCCO1` [γ-butryrolacton, γ-butyrolactone] here?
Its value is “(miscible)”.
